Measurements from patent publication US10092526B2, “Compositions and methods for treating respiratory injury or disease” (University of Pittsburgh—Of the Commonwealth System of …, priority 2013, dated 2018).
≈ marks a conversion by molar mass, not a printed value.

How the values were obtained:
Format in all cases: cell-based
[1] = U937 monocyte cytotoxicity, Trypan blue staining; settings: human; U937 monocytes, 16 hours, Trypan blue dead cells; read-out: LC50
Experimental: (§1) U937 monocytes (0.2 ml at 0.3 x 10^6/ml) were treated with each compound at different concentrations for 16 hours. The cells were then stained with Trypan blue to identify dead cells, and to calculate the LC50. Combined values were used to generate therapeutic indexes (TI)=LC50/IC50.

U937 monocytes = experiment: U937 monocyte cytotoxicity, Trypan blue staining; settings: therapeutic index (TI)=LC50/IC50
Experimental: as §1

TNFα cytokine release = experiment: LPS-induced TNFα cytokine release in PBMC (ELISA); settings: LPS 50 ng/ml, 16 hours, TNFα release by ELISA
Experimental: Peripheral blood mononuclear cells (PBMC) (0.2 ml at 0.3×10^6/ml) were treated with lipopolysaccharide (LPS) (50 ng/ml) for 16 hours concurrently with each compound tested at different concentrations. TNFα cytokine release was monitored by ELISA. These concentrations were used to calculate the IC50.

c1ccc(CNCCNCc2ccc(-c3ccccn3)cc2)nc1 [Compound 008]
CC50 at 16 h [1]: 45 µg/mL (≈ 141 µM)
TI (U937 monocytes): 30
IC50 (TNFα cytokine release): 1.5 µg/mL (≈ 4.71 µM)

c1cc(N2CCCC2)ccc1CNCCNCc1ccc(N2CCCC2)cc1 [Compound 002]
CC50 at 16 h [1]: 7 µg/mL (≈ 18.5 µM)
TI (U937 monocytes): 11
IC50 (TNFα cytokine release): 0.6 µg/mL (≈ 1.58 µM)

Cc1cc(N2CCCC2)ccc1CNCCCCNCc1ccc(N2CCCC2)cc1C [Compound 020]
CC50 at 16 h [1]: 2 µg/mL (≈ 4.6 µM)
TI (U937 monocytes): 10
IC50 (TNFα cytokine release): 0.2 µg/mL (≈ 0.46 µM)

c1cc(N2CCCC2)ccc1CNCCCCCNCc1ccc(N2CCCC2)cc1 [Compound 017]
CC50 at 16 h [1]: 4 µg/mL (≈ 9.51 µM)
TI (U937 monocytes): 20
IC50 (TNFα cytokine release): 0.2 µg/mL (≈ 0.475 µM)

c1cnn(-c2ccc(CNCCNCc3ccc(-n4cccn4)cc3)cc2)c1 [Compound 009]
CC50 at 16 h [1]: 80 µg/mL (≈ 215 µM)
TI (U937 monocytes): 57
IC50 (TNFα cytokine release): 1.4 µg/mL (≈ 3.76 µM)

c1cc(N2CCCC2)ccc1CNCCCCNCc1ccc(N2CCCC2)cc1 [Compound 006]
CC50 at 16 h [1]: 1 µg/mL (≈ 2.46 µM)
TI (U937 monocytes): 1
IC50 (TNFα cytokine release): 1 µg/mL (≈ 2.46 µM)

c1csc(-c2ccc(CNCCNCc3ccc(-c4nccs4)cc3)cc2)n1 [Compound 011]
CC50 at 16 h [1]: 8.5 µg/mL (≈ 20.9 µM)
TI (U937 monocytes): 21.3
IC50 (TNFα cytokine release): 0.4 µg/mL (≈ 0.984 µM)

c1cc(N2CCOCC2)ccc1CNCCNCc1ccc(N2CCOCC2)cc1 [Compound 001]
CC50 at 16 h [1]: 260 µg/mL (≈ 633 µM)
TI (U937 monocytes): 13
IC50 (TNFα cytokine release): 20 µg/mL (≈ 48.7 µM)

c1csc(-c2ccc(CNCCNCc3ccc(-c4cccs4)cc3)cc2)c1 [Compound 012]
CC50 at 16 h [1]: 1.8 µg/mL (≈ 4.45 µM)
TI (U937 monocytes): 1.6
IC50 (TNFα cytokine release): 1.1 µg/mL (≈ 2.72 µM)

c1cnc(-c2ccc(CNCCCCNCc3ccc(-c4ncccn4)cc3)cc2)nc1 [Compound 016]
CC50 at 16 h [1]: > 100 µg/mL
TI (U937 monocytes): >25
IC50 (TNFα cytokine release): 4 µg/mL (≈ 9.42 µM)
